Experimental data reported in patent US11890287B2, “Therapeutic compounds and compositions for treating social disorders and substance use disorders” (Kinoxis Therapeutics Pty Ltd, priority 2015, dated 2024).

Key:
HEK-293 cells = assay: Cell viability (Cell Titer Blue); format: cell-based; conditions: 48 hours; for Viability: mean ± SD
Method: (§1) No apparent cytotoxicity of SOC-1 has been seen in vitro or toxicity in vivo. In a test, SH-SY5Y neuroblastoma cells and HEK-293 cells (4×10^4 cells per well) were exposed to OT or SOC-1 (0.01-10 μM) for 48 hours, with daily media changes. Viability of cells was assessed after a 4 hour exposure to Cell Titer Blue (Promega).

[1] = system: SH-SY5Y neuroblastoma cells; assay: Cell viability (Cell Titer Blue); format: cell-based; conditions: 48 hours; for Viability: mean ± SD
Method: as §1

rhesus monkeys = assay: Intravenous cocaine self-administration; format: in vivo, rhesus monkey; conditions: 3 mg/kg orally
male Sprague Dawley rats = assay: Methamphetamine IVSA under a progressive ratio schedule; format: in vivo, rat
Method: Following recovery from surgery, rats were able to self-administer intravenous METH during 2 hour sessions. At the beginning of each session, catheters were flushed with 0.1 ml heparinised saline (10 IU/ml) and were connected to the infusion line. Lever extension and house light illumination indicated the initiation of the session. […] Depression of the active lever delivered a 3 s infusion of METH (0.1 mg/kg/infusion, 50 μL), illuminated the cue light, and extinguished the house light. The house light was extinguished for a 20 second time period during which depression of the active lever had no programmed consequences. […] At the end of each session, the infusion line was disconnected and catheters were flushed with 0.2 ml of cephazolin sodium in heparinized saline solution.
Rats acquired self-administration of METH during daily 2 hour fixed ratio 1 scheduled sessions. To avoid overdose, each rat was limited to a maximum of 60 infusions per session. Rats continued under the FR-1 schedule until stable responding was met as indicated by less than 10% variability in number of infusions and active lever presses compared to the day prior. Stable self-administration baselines were achieved within 10 days, after which rats advanced to the progressive ratio schedule.
Under the progressive ratio (PR) schedule, METH infusions were delivered according to the ratio: ((5×(e^reinforcer #×0.2)−5). The number of active lever presses that were required to receive one METH infusion increased according to the following sequence: 1, 2, 4, 6, 9, 12, 15, 20, 25, 32, 40, 50, 62, 77, 95, 118, 145, 178, 219, 268 (Cornish et al., 2005). The daily PR sessions were completed after 2 hours or if an infusion had not been self-administered for 60 minutes. Rats continued with PR sessions until lever pressing stabilised, which was determined by less than 10% variability in number of infusions and active lever presses for two consecutive days. Lever pressing stabilised after 7 days. During this time, the rats were given a sham saline i.p. (1 ml/kg) injection prior to the session. […]

V2 = V2 (Homo sapiens, UniProt P30518); assay: Orthosteric binding, AVP receptors
Sequence of V2 (P30518 whole entry): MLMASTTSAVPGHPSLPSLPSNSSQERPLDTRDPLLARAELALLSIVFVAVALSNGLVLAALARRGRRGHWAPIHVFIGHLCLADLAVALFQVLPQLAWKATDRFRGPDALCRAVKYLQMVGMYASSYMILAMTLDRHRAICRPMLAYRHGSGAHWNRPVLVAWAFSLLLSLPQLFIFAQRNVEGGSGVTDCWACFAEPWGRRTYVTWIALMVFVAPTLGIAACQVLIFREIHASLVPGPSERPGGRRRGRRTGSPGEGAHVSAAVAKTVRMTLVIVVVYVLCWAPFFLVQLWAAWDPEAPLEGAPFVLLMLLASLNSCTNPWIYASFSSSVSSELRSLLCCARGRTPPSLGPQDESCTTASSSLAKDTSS

rats = assay: Non-social tests of anxiety (elevated plus maze, open field); format: in vivo, rat; conditions: acute dosing or residual long-term effect

Cl.Cn1ncc2c1Nc1ccccc1NC2 [SOC-1]
Viability (HEK-293 cells; 0.01 μM): 102.6 ± 2.1 percentage of vehicle viability
Viability (HEK-293 cells; 0.1 μM): 102.1 ± 3.2 percentage of vehicle viability
Viability (HEK-293 cells; 1 μM): 102.5 ± 3.6 percentage of vehicle viability
Viability (HEK-293 cells; 10 μM): 103.2 ± 1.2 percentage of vehicle viability
differences in viability (HEK-293 cells; 0.01-10 μM): No significant differences in viability
Viability ([1]; 0.01 μM): 98.9 ± 2.7 percentage of vehicle viability
Viability ([1]; 0.1 μM): 99.1 ± 2.9 percentage of vehicle viability
Viability ([1]; 1 μM): 97.7 ± 1.6 percentage of vehicle viability
Viability ([1]; 10 μM): 97.0 ± 2.5 percentage of vehicle viability
differences in viability ([1]; 0.01-10 μM): No significant differences in viability
food consumption (rhesus monkeys): without affecting food consumption
intravenous cocaine self-administration relative to baseline levels (rhesus monkeys): nearly halved
active lever pressing under a PR schedule (male Sprague Dawley rats; 5 mg (p=0.043) and 10 mg/kg (p=0.007) IP vs vehicle): significantly reduced active lever pressing
infusion breakpoint (male Sprague Dawley rats; 10 mg/kg IP, p=0.001 vs vehicle): significant reduction
locomotor activity (male Sprague Dawley rats; 10 mg/kg IP, p=0.005 vs vehicle): significant reduction
affinity for the orthosteric binding site of V2 (V2): Nor does SOC-1 show any affinity
effect in non-social tests of anxiety (rats): without effect
